Tests used:
Type in all cases: in vivo
[1] = test system: ryegrass, Italian (italian ryegrass, Lolium multiflorum); test: Test A postemergence application, visual injury rating 0-100; details: for Ryegrass, Italian plant response rating (0 to 100 scale): Postemergence
How it was run: (§1)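 Compounds formulated in a non-phytotoxic solvent with surfactant are sprayed onto soil of freshly planted loam-sand pots ahead of emergence, or onto emerged plants 2-10 cm tall. After a 10-day greenhouse period, each species is scored visually for injury against untreated controls.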

[2] = test system: kochia (Bassia scoparia); test: as above; details: for Kochia plant response rating (0 to 100 scale): Postemergence
How it was run: as §1

[3] = test system: oat, wild (wild oat, Avena fatua); test: as above; details: for Oat, Wild plant response rating (0 to 100 scale): Postemergence
How it was run: as §1

[4] = test system: palmer (palmer amaranth, palmer pigweed, Amaranthus palmeri); test: as above; details: for Amaranth, Palmer / Pigweed, Palmer plant response rating (0 to 100 scale): 0 is no effect, 100 is complete control
How it was run: as §1

[5] = test system: wheat (Triticum aestivum); test: as above; details: for Wheat plant response rating (0 to 100 scale): Postemergence
How it was run: as §1

[6] = test system: galium (catchweed bedstraw, Galium aparine); test: as above; details: Postemergence
How it was run: as §1

[7] = test system: green foxtail (Setaria viridis); test: as above; details: for Foxtail, Green plant response rating (0 to 100 scale): Postemergence
How it was run: as §1

[8] = test system: blackgrass (Alopecurus myosuroides); test: as above; details: for Blackgrass plant response rating (0 to 100 scale): Postemergence
How it was run: as §1

[9] = test system: ragweed (common ragweed, Ambrosia artemisiifolia); test: as above; details: for Ragweed plant response rating (0 to 100 scale): Postemergence
How it was run: as §1

[10] = test system: soybean (Glycine max); test: as above; details: for Soybean plant response rating (0 to 100 scale): Postemergence
How it was run: as §1

[11] = test system: barnyardgrass (Echinochloa crus-galli); test: as above; details: for Barnyardgrass plant response rating (0 to 100 scale): Postemergence
How it was run: as §1

[12] = test system: corn (Zea mays); test: as above; details: for Corn plant response rating (0 to 100 scale): Postemergence
How it was run: as §1

[13] = test system: horseweed (Erigeron canadensis); test: as above; details: for Horseweed plant response rating (0 to 100 scale): Postemergence
How it was run: as §1

[14] = test system: ryegrass, Italian (italian ryegrass, Lolium multiflorum); test: Test A preemergence soil spray, visual injury rating 0-100; details: 10 days
How it was run: as §1

[15] = test system: kochia (Bassia scoparia); test: as above; details: 10 days, 0 = no effect, 100 = complete control
How it was run: as §1

[16] = test system: oat, wild (wild oat, Avena fatua); test: as above; details: 10 days
How it was run: as §1

[17] = test system: palmer (palmer amaranth, palmer pigweed, Amaranthus palmeri); test: as above; details: 10 days
How it was run: as §1

[18] = test system: wheat (Triticum aestivum); test: as above; details: 10 days
How it was run: as §1

[19] = test system: green foxtail (Setaria viridis); test: as above; details: 10 days
How it was run: as §1

[20] = test system: blackgrass (Alopecurus myosuroides); test: as above; details: 10 days
How it was run: as §1

[21] = test system: soybean (Glycine max); test: as above; details: 10 days
How it was run: as §1

[22] = test system: barnyardgrass (Echinochloa crus-galli); test: as above; details: 10 days
How it was run: as §1

[23] = test system: corn (Zea mays); test: as above; details: 10 days
How it was run: as §1

[24] = test system: rice (Oryza sativa); test: Test B flooded paddy test, visual plant response rating 0-100; details: 250 g ai/ha, Flood, applied to paddy water, evaluated after 13 days
How it was run: (§2)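 Visual evaluation after 13 days. Water-applied treatment, 3 cm flood depth held constant, plants at 2-leaf stage at treatment.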

[25] = test system: barnyardgrass (Echinochloa crusgalli); test: as above; details: 250 g ai/ha, Flood, applied to paddy water, evaluated after 13 days
How it was run: as §2

[26] = test system: ducksalad (Heteranthera limosa); test: as above; details: 250 g ai/ha, Flood, applied to paddy water, evaluated after 13 days
How it was run: as §2

[27] = test system: sedge, umbrella (small-flower umbrella sedge, Cyperus difformis); test: as above; details: 250 g ai/ha, Flood, applied to paddy water, evaluated after 13 days
How it was run: as §2

[28] = test system: ragweed (common ragweed, Ambrosia artemisiifolia); test: Test A preemergence soil spray, visual injury rating 0-100; details: 10 days
How it was run: as §1

[29] = 125 g ai/ha, 10 days, 0 is no effect, 100 is complete control
[30] = 500 g ai/ha, 10 days, 0 is no effect, 100 is complete control
[31] = 125 g ai/ha, 0 = no effect, 100 = complete control
[32] = 500 g ai/ha, 0 = no effect, 100 = complete control
[33] = 62 g ai/ha, postemergence, 10 days, 0 = no effect, 100 = complete control
[34] = 16 g ai/ha, greenhouse 10 days, 0 no effect, 100 complete control
[35] = 62 g ai/ha, 0 = no effect, 100 = complete control

## COCCOC(=O)C1C=CC(NC(=O)C2(C)CN(c3cc(F)cc(F)c3)C(=O)O2)C1 (stereo not drawn) [Compound 36]
[1]; [29]
  Ryegrass, Italian plant response rating (0 to 100 scale): 90
[1]; [30]
  Ryegrass, Italian plant response rating (0 to 100 scale): 80
[2]; [29]
  Kochia plant response rating (0 to 100 scale): 60
[2]; [30]
  Kochia plant response rating (0 to 100 scale): 70
[3]; [29]
  Oat, Wild plant response rating (0 to 100 scale): 90
[3]; [30]
  Oat, Wild plant response rating (0 to 100 scale): 100
[4]; Postemergence, 125 g ai/ha, 10 days
  Amaranth, Palmer / Pigweed, Palmer plant response rating (0 to 100 scale): 60
[4]; Postemergence, 500 g ai/ha, 10 days
  Amaranth, Palmer / Pigweed, Palmer plant response rating (0 to 100 scale): 100
[5]; [29]
  Wheat plant response rating (0 to 100 scale): 70
[5]; [30]
  Wheat plant response rating (0 to 100 scale): 80
[6]; [29]
  Galium plant response rating (0 to 100 scale): 70
[6]; [30]
  Galium plant response rating (0 to 100 scale): 80
[7]; [29]
  Foxtail, Green plant response rating (0 to 100 scale): 80
[7]; [30]
  Foxtail, Green plant response rating (0 to 100 scale): 90
[8]; [29]
  Blackgrass plant response rating (0 to 100 scale): 100
[8]; [30]
  Blackgrass plant response rating (0 to 100 scale): 100
[9]; [29]
  Ragweed plant response rating (0 to 100 scale): 60
[9]; [30]
  Ragweed plant response rating (0 to 100 scale): 80
[10]; [29]
  Soybean plant response rating (0 to 100 scale): 70
[10]; [30]
  Soybean plant response rating (0 to 100 scale): 80
[11]; [29]
  Barnyardgrass plant response rating (0 to 100 scale): 100
[11]; [30]
  Barnyardgrass plant response rating (0 to 100 scale): 100
[12]; [29]
  Corn plant response rating (0 to 100 scale): 100
[12]; [30]
  Corn plant response rating (0 to 100 scale): 100
[13]; [29]
  Horseweed plant response rating (0 to 100 scale): 70
[13]; [30]
  Horseweed plant response rating (0 to 100 scale): 90
[14]; [31]
  Ryegrass, Italian plant response rating (0 to 100 scale): 100
[14]; [32]
  Ryegrass, Italian plant response rating (0 to 100 scale): 100
[15]; 125 g ai/ha
  Kochia plant response rating (0 to 100 scale): 90
[15]; 500 g ai/ha
  Kochia plant response rating (0 to 100 scale): 100
[16]; [31]
  Oat, Wild plant response rating (0 to 100 scale): 90
[16]; [32]
  Oat, Wild plant response rating (0 to 100 scale): 90
[17]; [31]
  Amaranth, Palmer plant response rating (0 to 100 scale): 80
[17]; [32]
  Amaranth, Palmer plant response rating (0 to 100 scale): 100
[18]; [31]
  Wheat plant response rating (0 to 100 scale): 90
[18]; [32]
  Wheat plant response rating (0 to 100 scale): 100
[19]; [31]
  Foxtail, Green plant response rating (0 to 100 scale): 100
[19]; [32]
  Foxtail, Green plant response rating (0 to 100 scale): 100
[20]; [31]
  Blackgrass plant response rating (0 to 100 scale): 80
[20]; [32]
  Blackgrass plant response rating (0 to 100 scale): 100
[21]; [31]
  Soybean plant response rating (0 to 100 scale): 60
[21]; [32]
  Soybean plant response rating (0 to 100 scale): 80
[22]; [31]
  Barnyardgrass plant response rating (0 to 100 scale): 100
[22]; [32]
  Barnyardgrass plant response rating (0 to 100 scale): 100
[23]; [31]
  Corn plant response rating (0 to 100 scale): 90
[23]; [32]
  Corn plant response rating (0 to 100 scale): 90
[24]
  Plant response rating, Rice (0 to 100 scale, 0 is no effect and 100 is complete control): 55
[25]
  Plant response rating, Barnyardgrass (0 to 100 scale, 0 is no effect and 100 is complete control): 60
[26]
  Plant response rating, Ducksalad (0 to 100 scale, 0 is no effect and 100 is complete control): 90
[27]
  Plant response rating, Sedge, Umbrella (0 to 100 scale, 0 is no effect and 100 is complete control): 95

## COC(=O)C1=CCC(NC(=O)C2(C)CN(c3cc(Cl)cc(Cl)c3)C(=O)O2)C1 (stereo not drawn) [Compound 148]
[1]; [33]
  Ryegrass, Italian plant response rating (0-100): 50
[1]; [34]
  Ryegrass, Italian plant response rating (0 to 100 scale): 0
[2]; [33]
  Kochia plant response rating (0-100): 80
[2]; [34]
  Kochia plant response rating (0 to 100 scale): 0
[3]; [33]
  Oat, Wild plant response rating (0-100): 10
[3]; [34]
  Oat, Wild plant response rating (0 to 100 scale): 0
[4]; [33]
  Pigweed, Palmer plant response rating (0-100): 80
[4]; Postemergence, 16 g ai/ha, greenhouse 10 days, 0 no effect, 100 complete control
  Pigweed, Palmer plant response rating (0 to 100 scale): 10
[5]; [33]
  Wheat plant response rating (0-100): 30
[5]; [34]
  Wheat plant response rating (0 to 100 scale): 10
[6]; [34]
  Galium plant response rating (0 to 100 scale): 40
[7]; [33]
  Foxtail, Green plant response rating (0-100): 30
[7]; [34]
  Foxtail, Green plant response rating (0 to 100 scale): 0
[8]; [33]
  Blackgrass plant response rating (0-100): 70
[8]; [34]
  Blackgrass plant response rating (0 to 100 scale): 0
[9]; [33]
  Ragweed plant response rating (0-100): 0
[9]; [34]
  Ragweed plant response rating (0 to 100 scale): 0
[10]; [33]
  Soybean plant response rating (0-100): 50
[10]; [34]
  Soybean plant response rating (0 to 100 scale): 0
[11]; [33]
  Barnyardgrass plant response rating (0-100): 90
[11]; [34]
  Barnyardgrass plant response rating (0 to 100 scale): 0
[12]; [33]
  Corn plant response rating (0-100): 70
[12]; [34]
  Corn plant response rating (0 to 100 scale): 0
[13]; [33]
  Horseweed plant response rating (0-100): 0
[13]; [34]
  Horseweed plant response rating (0 to 100 scale): 0
[14]; 16 g ai/ha, 0 to 100 scale
  Ryegrass, Italian plant response rating: 0
[14]; [35]
  Ryegrass, Italian plant response rating (0-100): 0
[16]; 16 g ai/ha, 0 to 100 scale
  Oat, Wild plant response rating: 0
[16]; [35]
  Oat, Wild plant response rating (0-100): 0
[17]; 16 g ai/ha, 0 to 100 scale
  Pigweed, Palmer plant response rating: 0
[17]; [35]
  Pigweed, Palmer plant response rating (0-100): 0
[18]; 16 g ai/ha, 0 to 100 scale
  Wheat plant response rating: 0
[18]; [35]
  Wheat plant response rating (0-100): 0
[19]; 16 g ai/ha, 0 to 100 scale
  Foxtail, Green plant response rating: 0
[19]; [35]
  Foxtail, Green plant response rating (0-100): 0
[20]; 16 g ai/ha, 0 to 100 scale
  Blackgrass plant response rating: 0
[20]; [35]
  Blackgrass plant response rating (0-100): 0
[28]; 16 g ai/ha, 0 to 100 scale
  Ragweed plant response rating: 0
[28]; [35]
  Ragweed plant response rating (0-100): 0
[21]; 16 g ai/ha, 0 to 100 scale
  Soybean plant response rating: 0
[21]; [35]
  Soybean plant response rating (0-100): 20
[22]; 16 g ai/ha, 0 to 100 scale
  Barnyardgrass plant response rating: 0
[22]; [35]
  Barnyardgrass plant response rating (0-100): 0
[23]; 16 g ai/ha, 0 to 100 scale
  Corn plant response rating: 0
[23]; [35]
  Corn plant response rating (0-100): 0
[24]
  Plant response rating, Rice (0 to 100 scale, 0 is no effect and 100 is complete control): 0
[25]
  Plant response rating, Barnyardgrass (0 to 100 scale, 0 is no effect and 100 is complete control): 0
[26]
  Plant response rating, Ducksalad (0 to 100 scale, 0 is no effect and 100 is complete control): 0
[27]
  Plant response rating, Sedge, Umbrella (0 to 100 scale, 0 is no effect and 100 is complete control): 0
